Experimental data taken from patent US20090029932A1, “Identification and use of miRNAs for differentiating myeloid leukemia cells” (Centre National De La Recherche Scientifique (CNRS), priority 2004, published 2009).

Tests used:
miRNAs in NB4 cells = test: Northern blot of miRNA expression in NB4 cells; format: cell-based, human; details: 1 μM ATRA
Description: (§1) The total RNA was extracted from the cells of the NB4 cell lines treated or not treated with 1 μM of ATRA, at the same time intervals as in example 1, and using the Tri-Reagent® kit (SIGMA) according to the manufacturer's instructions. The analysis of the low molecular weight RNA by northern blot was carried out as described in LLAVE et al. (2002, previously cited). All of the northern blot experiments were carried out in double. DNA oligonucleotides complementary to the sequences of the miRNAs analysed were labelled at their end with ATP γ-P^32 using the polynucleotide kinase T4 (NEW ENGLAND BIOLABS) by following the manufacturer's instructions.
The quantity of RNA in each well was controlled by coloration of the gel with ethidium bromide and visualisation of the ribosomal RNA (rRNA) under UV light. […] In addition, the miRNAs that seem to belong to a same precursor effectively present a similar expression profile over time.
(§2) To formally establish the correlation between the expression of the different miRNAs identified and the differentiation in granulocytes, cells from NB4 and NB4-LR1 cell lines were cultivated in the presence or absence of ATRA as described in example 1. Northern blot experiments were carried out according to the protocol described in example 2. The different northern blot experiments were carried out with probes complementary to the miRNAs miR-23a, miR-17, miR-18, miR-19a, miR-19b, miR-20, miR-23 and miR-92.
To confirm the correlation between the expression of different miRNAs, and in particular miR-17, miR-18, miR-19a, miR19b, miR-20 and miR-92 and the differentiation in granulocytes, cells from NB4 and NB4-LR1 cell lines were cultivated in the presence or absence of ATRA/cAMP as described in example 1. Following an ATRA/cAMP co-treatment, the differentiation of the cells in the NB4-LR1 cell line in granulocytes is restored. Northern blot experiments were carried out according to the protocol described in example 2. […]

miR23a in NB4-LR2 cells = test: Northern blot of miR23a expression in NB4-LR2 cells; format: cell-based, human; details: ATRA
NB4-LR2 cell line = details: truncated PML-RARa; cited from earlier work
NB4 cell line = test: Granulocytic differentiation, NBT reduction test, NB4 cells; format: cell-based, human; details: for percentage of cells differentiated during the treatment: 100 μM 8-CPT-cAMP where added, NBT positive cells
Description: (§3) The cells from cell line NB4 and cell line NB4-LR1, resistant at maturation only by ATRA, were grown as described in LANOTTE et al. (1991, previously cited) and in RUCHAUD et al. (Proc. Natl. Acad. Sci., vol. 91, p: 8428-8432, 1994). The cells were then treated for 4 days in the presence of 1 μM of all-trans retinoic acid (ATRA, SIGMA-ALRICH) alone or with the addition of 100 μM of an cAMP analogue (8-CPT-cAMP, SIGMA-ALRICH). The cell proliferation was determined on a daily basis by counting the cells using a cell counter (BECKMAN COULTER FRANCE SA) from day 0, following the addition of the therapeutic agent, to day 4.
(§4) In parallel, the evolution of the differentiation was determined on a daily basis throughout the treatment. The granulocytic differentiation was simultaneously evaluated according to the morphological and biochemical criteria. The morphological analysis was carried out after May-Grünwald colouring. The biochemical analysis was carried out by a coloration test based on the reduction of NBT (nitro blue tetrazolium) that is used to measure the oxidative ability of the mature cells to reduce the NBT colorant. For this purpose, 0.5 to 1×10^5 cells were centrifuged for 5 minutes at 190 g. The cell sediment was then recovered in 200 μl of saline phosphate buffer (PBS) with the addition of NBT (SIGMA ALDRICH, 1 mg/ml) and PMA (Phorbol 12-myristate 13-acetate, SIGMA, 10^−7M) and then was incubated for 20 minutes at 37° C. The cells were then collected on slides by Cytospin® centrifugation, then observed by phase contrast microscopy. A minimum of 200 cells per slide were examined under light microscope and a differentiation percentage was calculated on the basis of the number of positive NBT cells.

miRNAs in NB4-LR1 cells = test: Northern blot of miRNA expression in NB4-LR1 cells; format: cell-based, human; details: NB4-LR1 compared with NB4; ATRA
Description: as §1
as §2, with “miR-92. […]” for “miR-92.”

NB4-LR1 cell line = test: Granulocytic differentiation, NBT reduction test, NB4-LR1 cells; format: cell-based, human; details: for percentage of cells differentiated during the treatment: 100 μM 8-CPT-cAMP where added, NBT positive cells
Description: as §3, §4

CC1=C(/C=C/C(C)=C/C=C/C(C)=C/C(=O)O)C(C)(C)CCC1 [ATRA, all-trans retinoic acid]
expression profile of miR-19b and miR-92, time of maximum (miRNAs in NB4 cells; 0 to 4 days): maximum of expression on day three of treatment
level of expression of miR-23a (miRNAs in NB4 cells; 0 to 4 days): increases over time
level of expression of miR-19b and miR-92 on day 4 of treatment (miRNAs in NB4 cells; against non treated cells): lower than their level of expression in the non treated cells
expression of miR23a (miR23a in NB4-LR2 cells): an increase in the expression of miR23a is not observed
sensitivity of the cells to induced differentiation (NB4-LR2 cell line): insensitive
differentiation of the cells (in words) (NB4 cell line): differentiate
percentage of cells differentiated during the treatment (NB4 cell line; day 0, 1 μM ATRA): 0%
percentage of cells differentiated during the treatment (NB4 cell line; day 1, 1 μM ATRA): 6%
percentage of cells differentiated during the treatment (NB4 cell line; day 2, 1 μM ATRA): 20%
percentage of cells differentiated during the treatment (NB4 cell line; day 3, 1 μM ATRA): 43%
percentage of cells differentiated during the treatment (NB4 cell line; day 4, 1 μM ATRA): 95%
expression profile of miR-17, miR-18, miR-19a, miR19b, miR-20 and miR-92 (miRNAs in NB4-LR1 cells): different expression profile between the NB4 and NB4-LR1 cells
differentiation of the cells (in words) (NB4-LR1 cell line): only the cells in the NB4 cell line differentiate
percentage of cells differentiated during the treatment (NB4-LR1 cell line; day 0, 1 μM ATRA): 0%
percentage of cells differentiated during the treatment (NB4-LR1 cell line; day 1, 1 μM ATRA): 0%
percentage of cells differentiated during the treatment (NB4-LR1 cell line; day 2, 1 μM ATRA): 2%
percentage of cells differentiated during the treatment (NB4-LR1 cell line; day 3, 1 μM ATRA): 5%
percentage of cells differentiated during the treatment (NB4-LR1 cell line; day 4, 1 μM ATRA): 5%
